Results published in ChEMBL document CHEMBL4011590, “Structure-activity relationship studies on 3,5-dinitrophenyl tetrazoles as antitubercular agents” (Eur J Med Chem, 2017).

Columns and labels:
[1] = tested on: Mycobacterium tuberculosis; test: Antimycobacterial activity against Mycobacterium tuberculosis H37Rv CNCTC My 331/88 after 14 days by micromethod; assay type: functional; conditions: H37Rv CNCTC My 331/88, 336 h
[2] = tested on: Mycobacterium tuberculosis; test: Antimycobacterial activity against Mycobacterium tuberculosis H37Rv CNCTC My 331/88 after 21 days by micromethod; assay type: functional; conditions: H37Rv CNCTC My 331/88, 504 h
Mycobacterium avium [3] = test: Antimycobacterial activity against Mycobacterium avium CNCTC My 330/80 after 14 days by micromethod; assay type: functional; conditions: CNCTC My 330/80, 336 h
Mycobacterium avium [4] = test: Antimycobacterial activity against Mycobacterium avium CNCTC My 330/80 after 21 days by micromethod; assay type: functional; conditions: CNCTC My 330/80, 504 h
Mycobacterium kansasii [5] = test: Antimycobacterial activity against Mycobacterium kansasii CNCTC My 235/80 after 7 days by micromethod; assay type: functional; conditions: CNCTC My 235/80, 168 h
Mycobacterium kansasii [6] = test: Antimycobacterial activity against Mycobacterium kansasii CNCTC My 235/80 after 14 days by micromethod; assay type: functional; conditions: CNCTC My 235/80, 336 h
Mycobacterium kansasii [7] = test: Antimycobacterial activity against Mycobacterium kansasii CNCTC My 235/80 after 21 days by micromethod; assay type: functional; conditions: CNCTC My 235/80, 504 h
Mycobacterium kansasii [8] = test: Antimycobacterial activity against Mycobacterium kansasii isolate 6509/96 after 7 days by micromethod; assay type: functional; conditions: isolate 6509/96, 168 h
Mycobacterium kansasii [9] = test: Antimycobacterial activity against Mycobacterium kansasii isolate 6509/96 after 14 days by micromethod; assay type: functional; conditions: isolate 6509/96, 336 h
Mycobacterium kansasii [10] = test: Antimycobacterial activity against Mycobacterium kansasii isolate 6509/96 after 21 days by micromethod; assay type: functional; conditions: isolate 6509/96, 504 h
CHO-K1 = test: Cytotoxicity against CHOK1 cells after 24 hrs by MTT assay; assay type: cell-based; conditions: Cricetulus griseus, CHO-K1, 24 h
Staphylococcus aureus [11] = test: Antibacterial activity against Staphylococcus aureus ATCC 6538 after 24 hrs by broth microdilution method; assay type: functional; conditions: ATCC 6538, 24 h
Staphylococcus aureus [12] = test: Antibacterial activity against Staphylococcus aureus ATCC 6538 after 48 hrs by broth microdilution method; assay type: functional; conditions: ATCC 6538, 48 h
Staphylococcus aureus [13] = test: Antibacterial activity against methicillin-resistant Staphylococcus aureus HK5996/08 after 24 hrs by broth microdilution method; assay type: functional; conditions: HK5996/08, 24 h
Staphylococcus aureus [14] = test: Antibacterial activity against methicillin-resistant Staphylococcus aureus HK5996/08 after 48 hrs by broth microdilution method; assay type: functional; conditions: HK5996/08, 48 h
[15] = tested on: Staphylococcus epidermidis; test: Antibacterial activity against Staphylococcus epidermidis HK6966/08 after 24 hrs by broth microdilution method; assay type: functional; conditions: HK6966/08, 24 h
[16] = tested on: Staphylococcus epidermidis; test: Antibacterial activity against Staphylococcus epidermidis HK6966/08 after 48 hrs by broth microdilution method; assay type: functional; conditions: HK6966/08, 48 h
Enterococcus sp. [17] = test: Antibacterial activity against Enterococcus sp. HK14365/08 after 24 hrs by broth microdilution method; assay type: functional; conditions: HK14365/08, 24 h
Enterococcus sp. [18] = test: Antibacterial activity against Enterococcus sp. HK14365/08 after 48 hrs by broth microdilution method; assay type: functional; conditions: HK14365/08, 48 h
Escherichia coli [19] = test: Antibacterial activity against Escherichia coli ATCC 8739 after 24 hrs by broth microdilution method; assay type: functional; conditions: ATCC 8739, 24 h
Escherichia coli [20] = test: Antibacterial activity against Escherichia coli ATCC 8739 after 48 hrs by broth microdilution method; assay type: functional; conditions: ATCC 8739, 48 h
Klebsiella pneumoniae [21] = test: Antibacterial activity against Klebsiella pneumoniae HK11750/08 after 24 hrs by broth microdilution method; assay type: functional; conditions: HK11750/08, 24 h
Klebsiella pneumoniae [22] = test: Antibacterial activity against Klebsiella pneumoniae HK11750/08 after 48 hrs by broth microdilution method; assay type: functional; conditions: HK11750/08, 48 h
Klebsiella pneumoniae [23] = test: Antibacterial activity against extended spectrum beta-lactamase producing Klebsiella pneumoniae HK14368/08 after 24 hrs by broth microdilution method; assay type: functional; conditions: HK14368/08, 24 h
Klebsiella pneumoniae [24] = test: Antibacterial activity against extended spectrum beta-lactamase producing Klebsiella pneumoniae HK14368/08 after 48 hrs by broth microdilution method; assay type: functional; conditions: HK14368/08, 48 h
Pseudomonas aeruginosa [25] = test: Antibacterial activity against Pseudomonas aeruginosa ATCC 9027 after 24 hrs by broth microdilution method; assay type: functional; conditions: ATCC 9027, 24 h
Pseudomonas aeruginosa [26] = test: Antibacterial activity against Pseudomonas aeruginosa ATCC 9027 after 48 hrs by broth microdilution method; assay type: functional; conditions: ATCC 9027, 48 h
Candida albicans [27] = test: Antifungal activity against Candida albicans ATCC 44859 after 24 hrs by broth microdilution method; assay type: functional; conditions: ATCC 44859, 24 h
Candida albicans [28] = test: Antifungal activity against Candida albicans ATCC 44859 after 48 hrs by broth microdilution method; assay type: functional; conditions: ATCC 44859, 48 h
Candida tropicalis [29] = test: Antifungal activity against Candida tropicalis 156 after 24 hrs by broth microdilution method; assay type: functional; conditions: Candida tropicalis, 156, 24 h
Candida tropicalis [30] = test: Antifungal activity against Candida tropicalis 156 after 48 hrs by broth microdilution method; assay type: functional; conditions: Candida tropicalis, 156, 48 h
Pichia kudriavzevii [31] = test: Antifungal activity against Candida krusei E28 after 24 hrs by broth microdilution method; assay type: functional; conditions: E28, 24 h
Pichia kudriavzevii [32] = test: Antifungal activity against Candida krusei E28 after 48 hrs by broth microdilution method; assay type: functional; conditions: E28, 48 h
Nakaseomyces glabratus [33] = test: Antifungal activity against Candida glabrata 20/I after 24 hrs by broth microdilution method; assay type: functional
Nakaseomyces glabratus [34] = test: Antifungal activity against Candida glabrata 20/I after 48 hrs by broth microdilution method; assay type: functional
Trichosporon asahii [35] = test: Antifungal activity against Trichosporon asahii 1188 after 24 hrs by broth microdilution method; assay type: functional; conditions: Trichosporon asahii, 1188, 24 h
Trichosporon asahii [36] = test: Antifungal activity against Trichosporon asahii 1188 after 48 hrs by broth microdilution method; assay type: functional; conditions: Trichosporon asahii, 1188, 48 h
Aspergillus fumigatus [37] = test: Antifungal activity against Aspergillus fumigatus 231 after 24 hrs by broth microdilution method; assay type: functional; conditions: Aspergillus fumigatus, 231, 24 h
Aspergillus fumigatus [38] = test: Antifungal activity against Aspergillus fumigatus 231 after 48 hrs by broth microdilution method; assay type: functional; conditions: Aspergillus fumigatus, 231, 48 h
Lichtheimia corymbifera [39] = test: Antifungal activity against Absidia corymbifera 272 after 24 hrs by broth microdilution method; assay type: functional; conditions: Lichtheimia corymbifera, 272, 24 h
Lichtheimia corymbifera [40] = test: Antifungal activity against Absidia corymbifera 272 after 48 hrs by broth microdilution method; assay type: functional; conditions: Lichtheimia corymbifera, 272, 48 h
[41] = tested on: Trichophyton mentagrophytes; test: Antifungal activity against Trichophyton mentagrophytes 445 after 72 hrs by broth microdilution method; assay type: functional; conditions: Trichophyton mentagrophytes, 445, 72 h
[42] = tested on: Trichophyton mentagrophytes; test: Antifungal activity against Trichophyton mentagrophytes 445 after 120 hrs by broth microdilution method; assay type: functional; conditions: Trichophyton mentagrophytes, 445, 120 h

O=[N+]([O-])c1cc(-c2nnn(Cc3cccc(Cl)c3)n2)cc([N+](=O)[O-])c1
2 µM: MIC99 (Mycobacterium kansasii [6]) | MIC99 (Mycobacterium kansasii [7]) | MIC99 (Mycobacterium kansasii [10])
4 µM: MIC99 (Mycobacterium avium [3])
> 500 µM: MIC (Staphylococcus aureus [11]) | MIC (Staphylococcus aureus [12]) | MIC (Staphylococcus aureus [13]) | MIC (Staphylococcus aureus [14]) | MIC [15] | MIC [16] | MIC (Enterococcus sp. [17]) | MIC (Enterococcus sp. [18]) | MIC (Escherichia coli [19]) | MIC (Escherichia coli [20]) | MIC (Klebsiella pneumoniae [21]) | MIC (Klebsiella pneumoniae [22]) | MIC (Klebsiella pneumoniae [23]) | MIC (Klebsiella pneumoniae [24]) | MIC (Pseudomonas aeruginosa [25]) | MIC (Pseudomonas aeruginosa [26]) | MIC (Candida albicans [27]) | MIC (Candida albicans [28]) | MIC (Candida tropicalis [29]) | MIC (Candida tropicalis [30]) | MIC (Pichia kudriavzevii [31]) | MIC (Pichia kudriavzevii [32]) | MIC (Nakaseomyces glabratus [33]) | MIC (Nakaseomyces glabratus [34]) | MIC (Trichosporon asahii [35]) | MIC (Trichosporon asahii [36]) | MIC (Aspergillus fumigatus [37]) | MIC (Aspergillus fumigatus [38]) | MIC (Lichtheimia corymbifera [39]) | MIC (Lichtheimia corymbifera [40]) | MIC [41] | MIC [42]
8 µM: MIC99 (Mycobacterium avium [4])
0.5 µM: MIC99 [1] | MIC99 [2] | MIC99 (Mycobacterium kansasii [8])
27 µM: IC50 (CHO-K1)
1 µM: MIC99 (Mycobacterium kansasii [5]) | MIC99 (Mycobacterium kansasii [9])

COc1cccc(Cn2nnc(-c3cc([N+](=O)[O-])cc([N+](=O)[O-])c3)n2)c1
> 100 µM: IC50 (CHO-K1)
8 µM: MIC99 (Mycobacterium avium [4])
1 µM: MIC99 [1] | MIC99 [2] | MIC99 (Mycobacterium kansasii [5]) | MIC99 (Mycobacterium kansasii [8])
2 µM: MIC99 (Mycobacterium kansasii [6]) | MIC99 (Mycobacterium kansasii [9]) | MIC99 (Mycobacterium kansasii [10])
> 500 µM: MIC (Staphylococcus aureus [11]) | MIC (Staphylococcus aureus [12]) | MIC (Staphylococcus aureus [13]) | MIC (Staphylococcus aureus [14]) | MIC [15] | MIC [16] | MIC (Enterococcus sp. [17]) | MIC (Enterococcus sp. [18]) | MIC (Escherichia coli [19]) | MIC (Escherichia coli [20]) | MIC (Klebsiella pneumoniae [21]) | MIC (Klebsiella pneumoniae [22]) | MIC (Klebsiella pneumoniae [23]) | MIC (Klebsiella pneumoniae [24]) | MIC (Pseudomonas aeruginosa [25]) | MIC (Pseudomonas aeruginosa [26]) | MIC (Candida albicans [27]) | MIC (Candida albicans [28]) | MIC (Candida tropicalis [29]) | MIC (Candida tropicalis [30]) | MIC (Pichia kudriavzevii [31]) | MIC (Pichia kudriavzevii [32]) | MIC (Nakaseomyces glabratus [33]) | MIC (Nakaseomyces glabratus [34]) | MIC (Trichosporon asahii [35]) | MIC (Trichosporon asahii [36]) | MIC (Aspergillus fumigatus [37]) | MIC (Aspergillus fumigatus [38]) | MIC (Lichtheimia corymbifera [39]) | MIC (Lichtheimia corymbifera [40]) | MIC [41] | MIC [42]
4 µM: MIC99 (Mycobacterium avium [3]) | MIC99 (Mycobacterium kansasii [7])

O=[N+]([O-])c1cc(-c2nnn(Cc3ccc(Cl)cc3)n2)cc([N+](=O)[O-])c1
8 µM: MIC99 (Mycobacterium avium [3]) | MIC99 (Mycobacterium avium [4])
31.2 µM: MIC (Staphylococcus aureus [11]) | MIC (Staphylococcus aureus [12])
2 µM: MIC99 (Mycobacterium kansasii [7]) | MIC99 (Mycobacterium kansasii [10])
170 µM: IC50 (CHO-K1)
500 µM: MIC (Trichosporon asahii [35]) | MIC (Trichosporon asahii [36])
> 500 µM: MIC (Staphylococcus aureus [13]) | MIC (Staphylococcus aureus [14]) | MIC (Enterococcus sp. [17]) | MIC (Enterococcus sp. [18]) | MIC (Escherichia coli [19]) | MIC (Escherichia coli [20]) | MIC (Klebsiella pneumoniae [21]) | MIC (Klebsiella pneumoniae [22]) | MIC (Klebsiella pneumoniae [23]) | MIC (Klebsiella pneumoniae [24]) | MIC (Pseudomonas aeruginosa [25]) | MIC (Pseudomonas aeruginosa [26]) | MIC (Candida albicans [27]) | MIC (Candida albicans [28]) | MIC (Pichia kudriavzevii [31]) | MIC (Pichia kudriavzevii [32]) | MIC (Nakaseomyces glabratus [33]) | MIC (Nakaseomyces glabratus [34]) | MIC (Aspergillus fumigatus [37]) | MIC (Aspergillus fumigatus [38]) | MIC (Lichtheimia corymbifera [39]) | MIC (Lichtheimia corymbifera [40]) | MIC [41] | MIC [42]
250 µM: MIC (Candida tropicalis [29]) | MIC (Candida tropicalis [30])
1 µM: MIC99 (Mycobacterium kansasii [6]) | MIC99 (Mycobacterium kansasii [9])
0.25 µM: MIC99 [1] | MIC99 [2] | MIC99 (Mycobacterium kansasii [5])
0.5 µM: MIC99 (Mycobacterium kansasii [8])
15.6 µM: MIC [15] | MIC [16]
